Measured values from PubChem BioAssay AID192 (DTP/NCI, 2004).
Where “and” joins values, the source holds several entries; their conditions need not be identical. Equal entries are not always repeated. Toxic doses and inconclusive results are not listed. How the source made its calls: active means survival T/C of 150% or more; inactive means T/C below 125% in these data.

System: BDF1 mice, B16 melanoma ip, median survival T/C
Assay: NCI In Vivo Anticancer Drug Screen. Data for tumor model B16 Melanoma (intraperitoneal) in B6D2F1 (BDF1) mice
Conditions: endpoint: median survival time, higher = longer survival
Procedure, shortened: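 Tumor-bearing mice received test compound or vehicle. Survival or tumor size was then measured in both groups. The treated-group figure was divided by the control-group figure.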

[1] = dose: 3.13 mg/kg/injection, schedule: Q01DX009 (ip), vehicle: other
[2] = dose: 6.25 mg/kg/injection, schedule: Q01DX009 (ip), vehicle: other
[3] = dose: 12.5 mg/kg/injection, schedule: Q01DX009 (ip), vehicle: Klucel (hydroxypropylcellulose) (HPC)
[4] = dose: 12.5 mg/kg/injection, schedule: Q01DX009 (ip), vehicle: other
[5] = dose: 50.0 mg/kg/injection, schedule: Q01DX009 (ip), vehicle: Klucel (hydroxypropylcellulose) (HPC)
[6] = dose: 100.0 mg/kg/injection, schedule: Q01DX009 (ip), vehicle: Klucel (hydroxypropylcellulose) (HPC)
[7] = dose: 6.25 mg/kg/injection, schedule: Q01DX009 (ip), vehicle: saline with Tween-80
[8] = dose: 12.5 mg/kg/injection, schedule: Q01DX009 (ip), vehicle: saline with Tween-80
[9] = dose: 25.0 mg/kg/injection, schedule: Q01DX009 (ip), vehicle: saline with Tween-80
[10] = dose: 50.0 mg/kg/injection, schedule: Q01DX009 (ip), vehicle: saline with Tween-80
[11] = dose: 100.0 mg/kg/injection, schedule: Q01DX009 (ip), vehicle: saline with Tween-80
[12] = dose: 6.25 mg/kg/injection, schedule: Q01DX009 (ip), vehicle: saline
[13] = dose: 25.0 mg/kg/injection, schedule: Q01DX009 (ip), vehicle: Klucel (hydroxypropylcellulose) (HPC)

Measured: T/C

COC(=O)/C(C)=C/C=C/C(OC)C(OC(N)=O)/C(C)=C/C(C)C(O)C(CC(C)CC1=C(OC)C(=O)C=C(N)C1=O)OC (stereo not given)
inactive: dose: 12.5 mg/kg/injection, schedule: Q01DX005 (ip), vehicle: other 103 % of control | dose: 25.0 mg/kg/injection, schedule: Q01DX005 (ip), vehicle: other 99 % of control | dose: 50.0 mg/kg/injection, schedule: Q01DX005 (ip), vehicle: other 108 % of control | dose: 100.0 mg/kg/injection, schedule: Q01DX005 (ip), vehicle: other 108 % of control | dose: 200.0 mg/kg/injection, schedule: Q01DX005 (ip), vehicle: other 86 % of control

Cc1ccc(S(=O)(=O)N/N=C/c2ccccc2Cl)cc1
inactive: dose: 1.56 mg/kg/injection, schedule: Q01DX009 (ip), vehicle: other 98 % of control | [1] 99 % of control | [2] 96 % of control | [3] 91 % of control | [4] 90 % of control | [5] 89 % of control | [6] 86 % of control

N#CC(c1ccccc1)N1CCCCC1 (stereo not given)
inactive: [5] 93 % of control | [6] 90 % of control

COC(=Nc1ccccc1)SSC(C)C
inactive: [7] 113 % of control | [8] 108 % of control | [9] 102 % of control | [10] 100 % of control | [11] 97 % of control

CNc1ncnc2c1cnn2C
inactive: dose: 10.0 mg/kg/injection, schedule: Q01DX009 (ip), vehicle: Klucel (hydroxypropylcellulose) (HPC) 97 % of control | dose: 20.0 mg/kg/injection, schedule: Q01DX009 (ip), vehicle: Klucel (hydroxypropylcellulose) (HPC) 89 % of control | dose: 40.0 mg/kg/injection, schedule: Q01DX009 (ip), vehicle: Klucel (hydroxypropylcellulose) (HPC) 89 % of control

Cc1ccc2nc(-c3ccc(N=Cc4ccccc4O)cc3)sc2c1
inactive: dose: 25.0 mg/kg/injection, schedule: Q01DX009 (ip), vehicle: olive oil, sesame oil, peanut oil 87 % of control | dose: 50.0 mg/kg/injection, schedule: Q01DX009 (ip), vehicle: olive oil, sesame oil, peanut oil 86 % of control

NNC(=O)c1ccc(N)cc1
inactive: [10] 112 % of control | [11] 102 % of control | dose: 200.0 mg/kg/injection, schedule: Q01DX009 (ip), vehicle: saline with Tween-80 97 % of control

O=C1CCCC2C1C1(O)CCC2(O)c2cccc(O)c21 (stereo not given)
inactive: dose: 1.56 mg/kg/injection, schedule: Q01DX009 (ip), vehicle: saline 90 % of control | dose: 3.12 mg/kg/injection, schedule: Q01DX009 (ip), vehicle: saline 95 % of control | dose: 3.12 mg/kg/injection, schedule: Q04DX003 (ip), vehicle: saline 93 % of control | [12] 93 % of control | dose: 6.25 mg/kg/injection, schedule: Q04DX003 (ip), vehicle: saline 91 % of control | [3] 95 % of control | dose: 12.5 mg/kg/injection, schedule: Q04DX003 (ip), vehicle: saline 91 % of control | dose: 18.0 mg/kg/injection, schedule: Q04DX003 (ip), vehicle: saline 105 % of control | dose: 28.0 mg/kg/injection, schedule: Q04DX003 (ip), vehicle: saline 103 % of control

[Cl][Pt][Cl].[NH-]C(CO)C(=O)O (stereo not given)
active: dose: 12.5 mg/kg/injection, schedule: Q01DX009 (ip), vehicle: water 151 % of control

CCOC(=O)c1cncc(C(=O)OCC)c1
inactive: [6] 107 % of control | dose: 200.0 mg/kg/injection, schedule: Q01DX009 (ip), vehicle: Klucel (hydroxypropylcellulose) (HPC) 113 % of control | dose: 400.0 mg/kg/injection, schedule: Q01DX009 (ip), vehicle: Klucel (hydroxypropylcellulose) (HPC) 106 % of control

CC1OC(OCC2OC(Oc3c(-c4ccc(O)c(OS(=O)(=O)O)c4)oc4cc(O)cc(O)c4c3=O)C(O)C(O)C2O)C(O)C(O)C1O (stereo not given)
inactive: dose: 4.0 mg/kg/injection, schedule: Q01DX009 (ip), vehicle: saline 101 % of control | dose: 8.0 mg/kg/injection, schedule: Q01DX009 (ip), vehicle: saline 105 % of control | dose: 16.0 mg/kg/injection, schedule: Q01DX009 (ip), vehicle: saline 101 % of control | dose: 32.0 mg/kg/injection, schedule: Q01DX009 (ip), vehicle: saline 100 % of control | dose: 64.0 mg/kg/injection, schedule: Q01DX009 (ip), vehicle: saline 103 % of control

CC(C)(C)OC(=O)NC(Cc1ccc(OCc2ccccc2)cc1)C(=O)O (stereo not given)
inactive: [7] 104 % of control | [8] 97 % of control | [9] 96 % of control | [10] 95 % of control | [11] 87 % of control

N=[N+]=CC(=O)CCC(NC(=O)C(CCC(=O)C=[N+]=N)NC(=O)CCC(N)C(=O)O)C(=O)O (stereo not given)
inactive: dose: 0.01 mg/kg/injection, schedule: Q01DX009 (ip), vehicle: other 96 % of control and 100 % of control and 106 % of control | dose: 0.05 mg/kg/injection, schedule: Q01DX009 (ip), vehicle: saline 100 % of control | dose: 0.1 mg/kg/injection, schedule: Q01DX009 (ip), vehicle: saline 117 % of control | dose: 0.1 mg/kg/injection, schedule: Q01DX009 (ip), vehicle: suspension in saline 90 % of control | dose: 0.2 mg/kg/injection, schedule: Q01DX009 (ip), vehicle: Klucel (hydroxypropylcellulose) (HPC) 90 % of control | dose: 0.2 mg/kg/injection, schedule: Q01DX009 (ip), vehicle: suspension in saline 103 % of control | dose: 0.4 mg/kg/injection, schedule: Q01DX009 (ip), vehicle: Klucel (hydroxypropylcellulose) (HPC) 92 % of control | dose: 0.4 mg/kg/injection, schedule: Q01DX009 (ip), vehicle: suspension in saline 101 % of control | dose: 0.5 mg/kg/injection, schedule: Q01DX009 (ip), vehicle: other 87 % of control | dose: 0.8 mg/kg/injection, schedule: Q01DX009 (ip), vehicle: Klucel (hydroxypropylcellulose) (HPC) 100 % of control | dose: 0.8 mg/kg/injection, schedule: Q01DX009 (ip), vehicle: suspension in saline 100 % of control | dose: 1.6 mg/kg/injection, schedule: Q01DX009 (ip), vehicle: Klucel (hydroxypropylcellulose) (HPC) 100 % of control | dose: 1.6 mg/kg/injection, schedule: Q01DX009 (ip), vehicle: suspension in saline 105 % of control | dose: 2.5 mg/kg/injection, schedule: Q04DX003 (ip), vehicle: water 105 % of control | dose: 5.0 mg/kg/injection, schedule: Q04DX003 (ip), vehicle: water 105 % of control | dose: 10.0 mg/kg/injection, schedule: Q04DX003 (ip), vehicle: other 122 % of control | dose: 10.0 mg/kg/injection, schedule: Q04DX003 (ip), vehicle: water 107 % of control | dose: 5.0 micrograms/kg/injection, schedule: Q01DX009 (ip), vehicle: water 123 % of control | dose: 10.0 micrograms/kg/injection, schedule: Q01DX009 (ip), vehicle: water 94 % of control | dose: 50.0 micrograms/kg/injection, schedule: Q01DX009 (ip), vehicle: water 115 % of control | dose: 100.0 micrograms/kg/injection, schedule: Q01DX009 (ip), vehicle: water 89 % of control

COc1cc(OC)cc(C(O)C(C)NC(C)C)c1 (stereo not given)
inactive: [12] 112 % of control | dose: 50.0 mg/kg/injection, schedule: Q01DX009 (ip), vehicle: saline 87 % of control | dose: 100.0 mg/kg/injection, schedule: Q01DX009 (ip), vehicle: saline 112 % of control

Cc1ccc(NC(=S)NC(Cc2ccccc2)c2ccccc2)c(C)c1 (stereo not given)
inactive: [3] 111 % of control | [13] 109 % of control | [5] 102 % of control | dose: 75.0 mg/kg/injection, schedule: Q04DX003 (ip), vehicle: Klucel (hydroxypropylcellulose) (HPC) 94 % of control | [6] 88 % of control | dose: 150.0 mg/kg/injection, schedule: Q04DX003 (ip), vehicle: Klucel (hydroxypropylcellulose) (HPC) 94 % of control | dose: 300.0 mg/kg/injection, schedule: Q04DX003 (ip), vehicle: Klucel (hydroxypropylcellulose) (HPC) 102 % of control

CCCCCCCCCCCCCC[N+](C)(C)CC(=O)O
inactive: [8] 93 % of control | [9] 91 % of control | [10] 86 % of control

Cn1ccc(=Nc2ccc(NC(=O)c3ccc(N=c4ccn(C)c5ccc([N+](=O)[O-])cc45)cc3)cc2)cc1
inactive: [1] 101 % of control | [2] 101 % of control | [4] 100 % of control | dose: 25.0 mg/kg/injection, schedule: Q01DX009 (ip), vehicle: other 97 % of control

ClC(Cl)(Cl)C(Nc1ccccc1)Nc1ccccc1
inactive: dose: 6.25 mg/kg/injection, schedule: Q01DX009 (ip), vehicle: Klucel (hydroxypropylcellulose) (HPC) 89 % of control | [13] 86 % of control
